Calls of active or inactive are those of the source. No cut-off for these calls is given here.
Key:
[1] = molecular target: Transient receptor potential cation channel subfamily M member 7 (Mus musculus) (UniProt Q923J1); assay: Inhibition of Tet-induced Flag-tagged mouse TRPM7 expressed in HEK293 cells assessed as inhibition of channel-mediated cell death in presence of Mg2+ incubated for 24 to 48 hrs by propidium iodide uptake assay; assay type: cell-based; set-up: concentration or dose not given beside the values
HEK293 = assay: Effect on Tet-induced Flag-tagged mouse TRPM7 expression in HEK293 cells; assay type: functional, cell-based; conditions: Homo sapiens

Transient receptor potential cation channel subfamily M member 7 (Mus musculus), sequence (Q923J1 whole entry): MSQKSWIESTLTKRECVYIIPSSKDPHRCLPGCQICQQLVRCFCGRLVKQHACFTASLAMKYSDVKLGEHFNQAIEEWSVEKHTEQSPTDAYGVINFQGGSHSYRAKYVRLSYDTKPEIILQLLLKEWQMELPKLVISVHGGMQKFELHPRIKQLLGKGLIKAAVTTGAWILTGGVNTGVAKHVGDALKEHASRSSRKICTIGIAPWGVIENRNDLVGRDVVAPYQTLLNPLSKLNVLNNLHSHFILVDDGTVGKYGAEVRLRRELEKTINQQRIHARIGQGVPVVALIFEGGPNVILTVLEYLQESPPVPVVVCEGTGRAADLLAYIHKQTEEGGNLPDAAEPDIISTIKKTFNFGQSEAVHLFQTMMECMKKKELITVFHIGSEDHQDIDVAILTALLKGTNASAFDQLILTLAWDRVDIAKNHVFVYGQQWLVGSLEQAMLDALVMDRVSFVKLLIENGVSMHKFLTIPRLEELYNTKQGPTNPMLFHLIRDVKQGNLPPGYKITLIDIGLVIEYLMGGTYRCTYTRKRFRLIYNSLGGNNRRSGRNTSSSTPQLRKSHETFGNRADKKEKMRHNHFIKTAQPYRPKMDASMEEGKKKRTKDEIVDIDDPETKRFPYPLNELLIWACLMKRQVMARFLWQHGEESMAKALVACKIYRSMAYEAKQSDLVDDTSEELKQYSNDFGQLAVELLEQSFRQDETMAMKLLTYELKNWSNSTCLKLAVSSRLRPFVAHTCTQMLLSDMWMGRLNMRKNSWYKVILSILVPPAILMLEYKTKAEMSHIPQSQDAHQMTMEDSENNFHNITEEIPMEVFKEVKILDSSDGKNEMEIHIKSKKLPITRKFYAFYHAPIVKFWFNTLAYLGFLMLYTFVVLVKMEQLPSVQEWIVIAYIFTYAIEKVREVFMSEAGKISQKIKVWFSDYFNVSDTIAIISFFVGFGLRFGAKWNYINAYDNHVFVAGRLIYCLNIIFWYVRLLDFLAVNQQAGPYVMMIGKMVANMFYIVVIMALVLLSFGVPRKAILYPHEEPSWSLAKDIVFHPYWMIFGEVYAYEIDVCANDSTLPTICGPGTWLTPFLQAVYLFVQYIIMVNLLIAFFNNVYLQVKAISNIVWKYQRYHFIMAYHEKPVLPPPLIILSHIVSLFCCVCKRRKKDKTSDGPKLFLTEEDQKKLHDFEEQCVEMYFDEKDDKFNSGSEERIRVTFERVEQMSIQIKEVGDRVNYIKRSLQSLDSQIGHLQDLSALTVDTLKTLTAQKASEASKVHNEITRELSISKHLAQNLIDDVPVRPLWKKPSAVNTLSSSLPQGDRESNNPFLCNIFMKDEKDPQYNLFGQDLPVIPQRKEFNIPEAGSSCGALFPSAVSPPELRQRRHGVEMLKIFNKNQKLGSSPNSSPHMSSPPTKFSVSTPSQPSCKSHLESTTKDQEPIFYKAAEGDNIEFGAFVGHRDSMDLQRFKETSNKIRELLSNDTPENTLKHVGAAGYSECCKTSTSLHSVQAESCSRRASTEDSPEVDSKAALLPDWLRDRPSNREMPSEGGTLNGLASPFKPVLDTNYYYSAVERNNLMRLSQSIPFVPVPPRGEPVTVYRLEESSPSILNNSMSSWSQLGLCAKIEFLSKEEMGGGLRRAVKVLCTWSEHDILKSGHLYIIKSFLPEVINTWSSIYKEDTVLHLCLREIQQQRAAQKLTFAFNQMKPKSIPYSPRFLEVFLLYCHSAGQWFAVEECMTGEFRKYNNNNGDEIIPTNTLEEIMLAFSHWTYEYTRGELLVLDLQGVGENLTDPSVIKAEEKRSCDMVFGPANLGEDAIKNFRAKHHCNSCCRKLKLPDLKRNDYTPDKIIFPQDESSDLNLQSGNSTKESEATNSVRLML

## Cc1nc(N/C=N/O)c(Br)cc1Br
[1]; concentration not given here
  inhibition: 30%

## C=C(C)[C@@H]1CC[C@]2(C(=O)O)CC[C@]3(C)[C@H](CC[C@@H]4[C@@]5(C)CC[C@H](O)C(C)(C)[C@@H]5CC[C@]43C)[C@@H]12
[1]
  inhibition: Dose-dependent effect

## Cc1onc(-c2ccccc2Cl)c1C(=O)NNc1cccc(C(F)(F)F)n1
[1]; concentration not given here
  inhibition: < 30%

## Cc1nc(-c2ccc(C(F)(F)F)cc2)nc(O)c1Cl
[1]; concentration not given here
  inhibition: < 30%

## N#CC(C#N)=CNc1cc(C(F)(F)F)ccc1N1CCCC1
[1]; concentration not given here
  inhibition: 40%

## O=C(c1cccs1)N1CCCN(Cc2cccc3ccccc23)CC1
[1]; concentration not given here
  inhibition: 80%

## CC(C)(C)c1cc2nc(C(F)(F)F)cc(N3CCN(S(=O)(=O)c4ccccc4)CC3)n2n1
[1]; concentration not given here
  inhibition: < 30%

## Cc1ccc(OC/C(N)=N/OC(=O)c2cc(C)on2)cc1
[1]; concentration not given here
  inhibition: < 30%

## Clc1cccc2nnsc12
[1]; concentration not given here
  inhibition: 30%

## N#Cc1ccc(NC(=O)Nc2ccc(OCc3ccccc3)cc2)cc1
[1]; concentration not given here
  inhibition: 80%

## Cc1nc(-c2ccc(S(=O)(=O)Nc3cccc(S(N)(=O)=O)c3)s2)cs1
[1]; concentration not given here
  inhibition: < 30%

## CCNC(=O)C(Cc1ccccc1)NC(=O)OC(C)(C)C (stereo not drawn)
[1]; concentration not given here
  inhibition: 30%

## FC(F)(F)c1cc(Oc2ccc(Cl)cc2)ccc1-c1ncc(-c2cccc(Cl)c2)o1
[1]; concentration not given here
  inhibition: 70%

## Cc1cc(Sc2ncnc3cc(-c4ccc(F)cc4)sc23)c(C)cc1Cl
[1]; concentration not given here
  inhibition: < 30%

## CC1(C)C=Cc2ccc(OCC(=O)Nc3ccccc3)cc2O1
[1]; concentration not given here
  inhibition: 30%

## COc1ccc(C2C3CCc4ccccc4C3=NN2CCOC(=O)Nc2ccc(Cl)cc2)cc1 (stereo not drawn)
[1]; concentration not given here
  inhibition: 60%

## COc1ccc(/C=N/NS(=O)(=O)c2ccc(Cl)cc2)cc1OC
[1]; concentration not given here
  inhibition: 80%

## COc1cccc(/C=C2/C=C(C3CCCS3)OC2=O)c1OC (stereo not drawn)
[1]; concentration not given here
  inhibition: < 30%

## Clc1ccc(CO/N=C/c2nc3ccccc3s2)cc1
[1]; concentration not given here
  inhibition: 40%

## COC(=O)C1=C(C)NC(C)=C(C(=O)OCCN(C)Cc2ccccc2)C1c1cccc([N+](=O)[O-])c1 (stereo not drawn)
HEK293
  Activity: inactive

## CN1c2ccsc2C(O)=C(C(=O)Nc2cccc(Cl)c2)S1(=O)=O
[1]; concentration not given here
  inhibition: < 30%

## CC(C)N(Cc1ccc(N(C)C)cc1)C(=O)c1sc2ccccc2c1Cl
[1]; concentration not given here
  inhibition: 50%

## O=C1NC(=O)/C(=C/c2cccc(C#Cc3ccccc3)c2)S1
[1]; concentration not given here
  inhibition: 60%

Reference: ChEMBL document CHEMBL3727350, “Agents and methods for treating ischemic and other diseases” (2014)
